Measurements as given in PubChem BioAssay (NCI).
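Assay format: 96-well plates, 48-hour exposure. TGI: total growth inhibition.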

How the values were obtained:
Experiment in all cases: NCI-60 cell line screen, 48 h
NCI-H522 lung = system: NCI-H522 lung
SN12C renal = system: SN12C renal
NCI-H23 lung = system: NCI-H23 lung
SNB-75 CNS = system: SNB-75 CNS
SW-620 colon = system: SW-620 colon
786-0 renal = system: 786-0 renal
MDA-MB-435 = system: MDA-MB-435
HOP-62 NSCLC = system: HOP-62 NSCLC
SK-MEL-2 melanoma = system: SK-MEL-2 melanoma
TK-10 renal = system: TK-10 renal
EKVX NSCLC = system: EKVX NSCLC
CAKI-1 renal = system: CAKI-1 renal
OVCAR-5 ovarian = system: OVCAR-5 ovarian
HOP-92 NSCLC = system: HOP-92 NSCLC
MDA-N = system: MDA-N
SF-295 CNS = system: SF-295 CNS
HL-60(TB) leukemia = system: HL-60(TB) leukemia
PC-3 prostate = system: PC-3 prostate
SK-MEL-28 melanoma = system: SK-MEL-28 melanoma
OVCAR-4 ovarian = system: OVCAR-4 ovarian
BT-549 breast = system: BT-549 breast
HS 578T breast = system: HS 578T breast
UACC-62 melanoma = system: UACC-62 melanoma
SNB-19 CNS = system: SNB-19 CNS
SR leukemia = system: SR leukemia
MCF7 breast = system: MCF7 breast
DU-145 prostate = system: DU-145 prostate
MDA-MB-231 breast = system: MDA-MB-231 breast
SK-OV-3 ovarian = system: SK-OV-3 ovarian
NCI-H460 lung = system: NCI-H460 lung
SF-268 CNS = system: SF-268 CNS
A549 NSCLC = system: A549 NSCLC
HCT-116 colon = system: HCT-116 colon
U251 CNS = system: U251 CNS
KM12 colon = system: KM12 colon
NCI/ADR-RES ovarian = system: NCI/ADR-RES ovarian
OVCAR-8 ovarian = system: OVCAR-8 ovarian
SK-MEL-5 melanoma = system: SK-MEL-5 melanoma
HCC-2998 colon = system: HCC-2998 colon
M14 melanoma = system: M14 melanoma
COLO 205 colon = system: COLO 205 colon
K-562 leukemia = system: K-562 leukemia
ACHN renal = system: ACHN renal
OVCAR-3 ovarian = system: OVCAR-3 ovarian
A498 renal = system: A498 renal
SF-539 CNS = system: SF-539 CNS
HT29 colon = system: HT29 colon
NCI-H226 lung = system: NCI-H226 lung
LOX IMVI melanoma = system: LOX IMVI melanoma
RPMI-8226 leukemia = system: RPMI-8226 leukemia
MALME-3M melanoma = system: MALME-3M melanoma
CCRF-CEM leukemia = system: CCRF-CEM leukemia
UO-31 renal = system: UO-31 renal
UACC-257 melanoma = system: UACC-257 melanoma
MOLT-4 leukemia = system: MOLT-4 leukemia
HCT-15 colon = system: HCT-15 colon

CC1(F)C=CC(=O)C=C1 was tested, and the TGI (NCI-H522 lung) was over 100 µM, the TGI (SN12C renal) was over 100 µM and the TGI (NCI-H23 lung) was over 100 µM. The TGI (SNB-75 CNS) was over 100 µM, the TGI (SW-620 colon) was 42.3 µM and the TGI (786-0 renal) was 35 µM. For the same compound, the TGI (MDA-MB-435) was over 100 µM, the TGI (HOP-62 NSCLC) was over 100 µM and the TGI (SK-MEL-2 melanoma) was over 100 µM. It also gave a TGI (TK-10 renal) of over 100 µM, a TGI (EKVX NSCLC) of over 100 µM and a TGI (CAKI-1 renal) of over 100 µM. It also gave a TGI (OVCAR-5 ovarian) of over 100 µM, a TGI (HOP-92 NSCLC) of 72.1 µM and a TGI (MDA-N) of over 100 µM. It also gave a TGI (SF-295 CNS) of over 100 µM, a TGI (HL-60(TB) leukemia) of 93.1 µM and a TGI (PC-3 prostate) of over 100 µM. It also gave a TGI (SK-MEL-28 melanoma) of over 100 µM, a TGI (OVCAR-4 ovarian) of over 100 µM and a TGI (BT-549 breast) of over 100 µM. It also gave a TGI (HS 578T breast) of over 100 µM, a TGI (UACC-62 melanoma) of over 100 µM and a TGI (SNB-19 CNS) of over 100 µM. It also gave a TGI (SR leukemia) of over 100 µM, a TGI (MCF7 breast) of over 100 µM and a TGI (DU-145 prostate) of over 100 µM. For the same compound, the TGI (MDA-MB-231 breast) was over 100 µM, the TGI (SK-OV-3 ovarian) was over 100 µM and the TGI (NCI-H460 lung) was over 100 µM. The TGI (SF-268 CNS) was over 100 µM, the TGI (A549 NSCLC) was over 100 µM and the TGI (HCT-116 colon) was over 100 µM. The TGI (U251 CNS) was over 100 µM, the TGI (KM12 colon) was over 100 µM and the TGI (NCI/ADR-RES ovarian) was 34.8 µM. The TGI (OVCAR-8 ovarian) was 42.7 µM, the TGI (SK-MEL-5 melanoma) was over 100 µM and the TGI (HCC-2998 colon) was over 100 µM. The TGI (M14 melanoma) was over 100 µM, the TGI (COLO 205 colon) was over 100 µM and the TGI (K-562 leukemia) was over 100 µM. The TGI (ACHN renal) was over 100 µM, the TGI (OVCAR-3 ovarian) was over 100 µM and the TGI (A498 renal) was over 100 µM. It also gave a TGI (SF-539 CNS) of over 100 µM, a TGI (HT29 colon) of over 100 µM and a TGI (NCI-H226 lung) of over 100 µM. For the same compound, the TGI (LOX IMVI melanoma) was 31.4 µM, the TGI (RPMI-8226 leukemia) was over 100 µM and the TGI (MALME-3M melanoma) was 68.9 µM. The TGI (CCRF-CEM leukemia) was over 100 µM, the TGI (UO-31 renal) was over 100 µM and the TGI (UACC-257 melanoma) was over 100 µM. The TGI (MOLT-4 leukemia) was over 100 µM and the TGI (HCT-15 colon) was 45.7 µM.
